Values belong to the compound of their own block, whether it stands above or below them. The source made the active and inactive calls.
Columns and labels:
Assay type in all cases: functional
[1] = biological target: Sphingosine 1-phosphate receptor 3 (Homo sapiens, UniProt Q99500); assay: Late stage counterscreen assay for S1P4 antagonists: Fluorescence dose response cell-based screening assay for antagonists of the Sphingosine 1-Phosphate Receptor 3 (S1P3). [Related pubchem assays (depositor defined):AID1510, AID1524, AID1692, AID1853, AID2332, AID489009, AID489017]
Sequence of Sphingosine 1-phosphate receptor 3 (Q99500 whole entry): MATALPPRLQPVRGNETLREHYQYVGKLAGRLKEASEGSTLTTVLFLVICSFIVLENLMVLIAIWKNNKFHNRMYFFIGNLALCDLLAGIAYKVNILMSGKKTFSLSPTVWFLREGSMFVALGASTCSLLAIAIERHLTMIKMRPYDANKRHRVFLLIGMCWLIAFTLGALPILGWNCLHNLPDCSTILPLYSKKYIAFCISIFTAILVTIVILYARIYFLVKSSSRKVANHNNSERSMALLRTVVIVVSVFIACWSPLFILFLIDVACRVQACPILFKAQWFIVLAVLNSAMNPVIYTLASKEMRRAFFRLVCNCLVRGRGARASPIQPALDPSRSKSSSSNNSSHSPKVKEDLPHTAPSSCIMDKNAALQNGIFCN

[2] = biological target: Sphingosine 1-phosphate receptor 1 (Homo sapiens, UniProt P21453); assay: Late stage counterscreen assay for S1P4 antagonists: Fluorescence dose response cell-based screening assay for antagonists of the Sphingosine 1-Phosphate Receptor 1 (S1P1). [Related pubchem assays (depositor defined):AID1510, AID1524, AID1692, AID1853, AID2332, AID489009, AID489017]
Sequence of Sphingosine 1-phosphate receptor 1 (P21453 whole entry): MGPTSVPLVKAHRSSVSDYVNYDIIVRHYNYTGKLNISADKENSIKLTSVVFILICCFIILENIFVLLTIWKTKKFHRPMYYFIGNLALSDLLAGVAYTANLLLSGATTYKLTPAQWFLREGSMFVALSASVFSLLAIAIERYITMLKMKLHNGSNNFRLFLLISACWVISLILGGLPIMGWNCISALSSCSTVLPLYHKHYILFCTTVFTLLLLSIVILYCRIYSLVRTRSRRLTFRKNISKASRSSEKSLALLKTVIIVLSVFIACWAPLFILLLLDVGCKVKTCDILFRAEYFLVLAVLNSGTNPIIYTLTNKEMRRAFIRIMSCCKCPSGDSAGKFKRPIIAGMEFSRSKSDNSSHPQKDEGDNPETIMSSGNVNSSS

[3] = biological target: Sphingosine 1-phosphate receptor 5 (Homo sapiens, UniProt Q9H228); assay: Late stage counterscreen assay for S1P4 antagonists: Fluorescence dose response cell-based screening assay for antagonists of the Sphingosine 1-Phosphate Receptor 5 (S1P5). [Related pubchem assays (depositor defined):AID1510, AID1524, AID1692, AID1853, AID2332, AID489009, AID489017]
Sequence of Sphingosine 1-phosphate receptor 5 (Q9H228 whole entry): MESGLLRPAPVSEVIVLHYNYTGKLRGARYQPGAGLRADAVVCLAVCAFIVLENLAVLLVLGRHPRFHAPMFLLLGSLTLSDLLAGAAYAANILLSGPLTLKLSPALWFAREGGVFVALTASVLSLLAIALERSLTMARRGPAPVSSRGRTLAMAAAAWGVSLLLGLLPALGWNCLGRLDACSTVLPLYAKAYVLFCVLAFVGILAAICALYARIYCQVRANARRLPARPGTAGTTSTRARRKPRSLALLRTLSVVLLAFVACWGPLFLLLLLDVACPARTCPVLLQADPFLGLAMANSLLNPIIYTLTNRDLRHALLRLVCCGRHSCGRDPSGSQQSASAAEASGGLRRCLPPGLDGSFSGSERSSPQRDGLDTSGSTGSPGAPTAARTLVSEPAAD

[4] = biological target: Voltage-dependent T-type calcium channel subunit alpha-1H (Homo sapiens, UniProt O95180);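 note: channel activity triggered by adding a high calcium stimulation buffer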
Sequence of Voltage-dependent T-type calcium channel subunit alpha-1H (O95180 whole entry): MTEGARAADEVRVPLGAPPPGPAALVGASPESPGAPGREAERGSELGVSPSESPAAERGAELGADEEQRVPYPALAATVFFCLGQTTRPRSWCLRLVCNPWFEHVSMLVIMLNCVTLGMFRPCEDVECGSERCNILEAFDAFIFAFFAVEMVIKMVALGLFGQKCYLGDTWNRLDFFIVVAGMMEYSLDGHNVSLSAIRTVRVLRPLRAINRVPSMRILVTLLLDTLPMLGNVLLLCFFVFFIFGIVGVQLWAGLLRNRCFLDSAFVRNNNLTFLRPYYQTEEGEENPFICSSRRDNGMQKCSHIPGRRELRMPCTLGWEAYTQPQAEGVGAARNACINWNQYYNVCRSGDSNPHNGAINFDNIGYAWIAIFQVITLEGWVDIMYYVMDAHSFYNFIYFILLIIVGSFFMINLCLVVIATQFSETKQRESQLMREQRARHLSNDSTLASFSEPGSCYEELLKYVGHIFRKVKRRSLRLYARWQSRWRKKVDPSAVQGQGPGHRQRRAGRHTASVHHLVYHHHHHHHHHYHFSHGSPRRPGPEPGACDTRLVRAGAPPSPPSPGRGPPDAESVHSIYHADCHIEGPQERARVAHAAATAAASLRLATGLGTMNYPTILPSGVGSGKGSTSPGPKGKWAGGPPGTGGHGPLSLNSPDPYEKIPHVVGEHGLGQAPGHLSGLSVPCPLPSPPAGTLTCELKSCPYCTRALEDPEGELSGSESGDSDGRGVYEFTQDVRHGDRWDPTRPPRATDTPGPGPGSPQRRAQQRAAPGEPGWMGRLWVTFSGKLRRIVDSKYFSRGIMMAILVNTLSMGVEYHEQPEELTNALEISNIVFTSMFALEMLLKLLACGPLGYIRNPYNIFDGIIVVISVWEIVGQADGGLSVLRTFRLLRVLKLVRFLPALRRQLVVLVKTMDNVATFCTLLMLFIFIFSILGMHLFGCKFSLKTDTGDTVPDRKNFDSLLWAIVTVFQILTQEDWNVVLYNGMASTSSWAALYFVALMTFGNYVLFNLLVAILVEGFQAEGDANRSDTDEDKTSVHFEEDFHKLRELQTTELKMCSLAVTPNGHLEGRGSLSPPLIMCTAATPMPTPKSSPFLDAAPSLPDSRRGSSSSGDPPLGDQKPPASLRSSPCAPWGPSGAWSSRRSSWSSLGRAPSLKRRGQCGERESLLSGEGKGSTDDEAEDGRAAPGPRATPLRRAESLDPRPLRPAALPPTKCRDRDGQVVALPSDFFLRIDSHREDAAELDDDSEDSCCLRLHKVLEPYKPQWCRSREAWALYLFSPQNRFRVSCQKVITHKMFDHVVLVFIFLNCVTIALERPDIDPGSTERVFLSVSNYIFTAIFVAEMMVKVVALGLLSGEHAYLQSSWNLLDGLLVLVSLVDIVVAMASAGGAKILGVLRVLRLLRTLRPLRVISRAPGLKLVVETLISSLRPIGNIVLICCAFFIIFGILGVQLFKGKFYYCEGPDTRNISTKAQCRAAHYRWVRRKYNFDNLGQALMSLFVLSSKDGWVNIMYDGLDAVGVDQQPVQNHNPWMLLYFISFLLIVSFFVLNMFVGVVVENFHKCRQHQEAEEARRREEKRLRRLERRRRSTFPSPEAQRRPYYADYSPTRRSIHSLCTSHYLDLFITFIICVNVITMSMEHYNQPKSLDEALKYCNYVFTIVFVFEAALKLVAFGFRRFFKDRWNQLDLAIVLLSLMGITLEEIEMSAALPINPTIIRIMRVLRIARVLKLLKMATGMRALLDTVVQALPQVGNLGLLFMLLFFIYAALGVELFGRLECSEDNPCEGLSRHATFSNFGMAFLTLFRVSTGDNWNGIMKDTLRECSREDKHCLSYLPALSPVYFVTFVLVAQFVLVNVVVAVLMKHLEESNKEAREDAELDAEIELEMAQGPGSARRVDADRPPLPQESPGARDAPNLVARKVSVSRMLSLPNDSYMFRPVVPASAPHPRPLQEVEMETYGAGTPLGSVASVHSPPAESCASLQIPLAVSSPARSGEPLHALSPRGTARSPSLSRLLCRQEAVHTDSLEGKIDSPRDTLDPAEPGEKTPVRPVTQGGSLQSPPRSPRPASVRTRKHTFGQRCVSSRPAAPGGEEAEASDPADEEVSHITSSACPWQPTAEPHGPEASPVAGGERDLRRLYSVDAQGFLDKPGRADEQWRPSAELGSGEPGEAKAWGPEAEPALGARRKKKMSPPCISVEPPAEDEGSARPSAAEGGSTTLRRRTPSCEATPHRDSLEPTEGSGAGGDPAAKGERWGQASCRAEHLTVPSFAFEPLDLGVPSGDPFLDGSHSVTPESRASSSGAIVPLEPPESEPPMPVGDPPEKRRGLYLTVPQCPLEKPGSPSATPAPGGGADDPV

[5] = biological target: Sphingosine 1-phosphate receptor 2 (Homo sapiens, UniProt O95136); assay: Late stage counterscreen assay for S1P4 antagonists: Fluorescence dose response cell-based screening assay for antagonists of the Sphingosine 1-Phosphate Receptor 2 (S1P2). [Related pubchem assays (depositor defined):AID1510, AID1524, AID1692, AID1853, AID2332, AID489009, AID489017]
Sequence of Sphingosine 1-phosphate receptor 2 (O95136 whole entry): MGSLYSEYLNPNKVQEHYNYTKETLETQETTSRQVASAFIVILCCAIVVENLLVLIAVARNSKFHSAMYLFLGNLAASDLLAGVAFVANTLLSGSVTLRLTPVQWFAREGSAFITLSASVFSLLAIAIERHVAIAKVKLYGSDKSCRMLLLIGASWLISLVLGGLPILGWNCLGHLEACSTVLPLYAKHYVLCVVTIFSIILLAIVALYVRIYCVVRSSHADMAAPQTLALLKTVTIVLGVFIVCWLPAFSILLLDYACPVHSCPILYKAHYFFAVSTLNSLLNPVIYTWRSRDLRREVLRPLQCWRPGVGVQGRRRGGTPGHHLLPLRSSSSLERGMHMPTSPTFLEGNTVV

T-cell = assay: inhibitors of CD8+ T cell–vesicle binding, dose response, mouse 2C CD8+ T cells, flow cytometry (AID 485284)
[6] = biological target: T1, Kappa-type opioid receptor (Homo sapiens, UniProt P41145); assay: KOR agonist analogs, imaging readout, SAR follow-up, image-based (AID 2359)
T1 sequence (P41145 whole entry): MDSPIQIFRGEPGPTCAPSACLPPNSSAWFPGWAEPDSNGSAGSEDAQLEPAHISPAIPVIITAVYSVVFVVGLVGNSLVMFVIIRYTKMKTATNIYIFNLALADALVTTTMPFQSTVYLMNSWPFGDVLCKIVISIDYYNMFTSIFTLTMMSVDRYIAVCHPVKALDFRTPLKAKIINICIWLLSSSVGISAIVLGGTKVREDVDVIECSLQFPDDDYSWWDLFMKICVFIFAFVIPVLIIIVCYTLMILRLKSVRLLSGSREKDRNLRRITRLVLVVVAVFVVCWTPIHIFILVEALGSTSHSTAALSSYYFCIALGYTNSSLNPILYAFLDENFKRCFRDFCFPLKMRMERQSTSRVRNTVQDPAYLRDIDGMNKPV

Mu-type opioid receptor [7] = biological target: T2, Mu-type opioid receptor (Homo sapiens, UniProt P35372); assay: MOR antagonists, SAR follow-up, image-based (AID 2420);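 note: compounds added before stimulation of receptor with agonist DAMGO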
T2 sequence (P35372 whole entry): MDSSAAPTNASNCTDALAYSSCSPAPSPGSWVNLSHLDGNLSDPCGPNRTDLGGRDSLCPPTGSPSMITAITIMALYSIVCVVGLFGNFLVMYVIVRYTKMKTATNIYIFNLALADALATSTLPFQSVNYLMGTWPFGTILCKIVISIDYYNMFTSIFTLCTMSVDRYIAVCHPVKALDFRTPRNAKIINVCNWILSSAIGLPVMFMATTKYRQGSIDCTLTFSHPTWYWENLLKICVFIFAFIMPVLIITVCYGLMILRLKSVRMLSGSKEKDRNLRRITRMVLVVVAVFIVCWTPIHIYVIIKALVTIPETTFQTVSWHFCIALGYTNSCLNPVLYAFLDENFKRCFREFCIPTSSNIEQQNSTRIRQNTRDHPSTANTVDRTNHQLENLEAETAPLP

[8] = biological target: T1, Kappa-type opioid receptor; assay: KOR antagonists by imaging, SAR follow-up, image-based (AID 2348)
Mu-type opioid receptor [9] = biological target: T2, Mu-type opioid receptor; assay: MOR agonists by imaging, SAR follow-up, image-based (AID 2352)
[10] = biological target: T3, Delta-type opioid receptor (Homo sapiens, UniProt P41143); assay: DOR antagonists, SAR follow-up, image-based (AID 2357)
T3 sequence (P41143 whole entry): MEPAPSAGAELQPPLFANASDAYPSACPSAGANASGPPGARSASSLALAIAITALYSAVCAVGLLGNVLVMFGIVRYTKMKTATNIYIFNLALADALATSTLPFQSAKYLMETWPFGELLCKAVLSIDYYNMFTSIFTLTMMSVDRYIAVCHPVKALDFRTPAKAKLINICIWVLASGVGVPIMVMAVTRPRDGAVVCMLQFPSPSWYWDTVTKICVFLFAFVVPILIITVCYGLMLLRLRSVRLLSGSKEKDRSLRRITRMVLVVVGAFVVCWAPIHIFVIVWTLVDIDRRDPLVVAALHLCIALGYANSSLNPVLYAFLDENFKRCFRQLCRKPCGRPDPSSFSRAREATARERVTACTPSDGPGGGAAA

[11] = biological target: T4, Short transient receptor potential channel 4 (Mus musculus, UniProt Q9QUQ5); assay: mouse TRPC4 channel activators, dose response, cell-based, HEK293 TRPC4/mu-opioid, Fluo-4 calcium (AID 434937)
T4 sequence (Q9QUQ5 whole entry): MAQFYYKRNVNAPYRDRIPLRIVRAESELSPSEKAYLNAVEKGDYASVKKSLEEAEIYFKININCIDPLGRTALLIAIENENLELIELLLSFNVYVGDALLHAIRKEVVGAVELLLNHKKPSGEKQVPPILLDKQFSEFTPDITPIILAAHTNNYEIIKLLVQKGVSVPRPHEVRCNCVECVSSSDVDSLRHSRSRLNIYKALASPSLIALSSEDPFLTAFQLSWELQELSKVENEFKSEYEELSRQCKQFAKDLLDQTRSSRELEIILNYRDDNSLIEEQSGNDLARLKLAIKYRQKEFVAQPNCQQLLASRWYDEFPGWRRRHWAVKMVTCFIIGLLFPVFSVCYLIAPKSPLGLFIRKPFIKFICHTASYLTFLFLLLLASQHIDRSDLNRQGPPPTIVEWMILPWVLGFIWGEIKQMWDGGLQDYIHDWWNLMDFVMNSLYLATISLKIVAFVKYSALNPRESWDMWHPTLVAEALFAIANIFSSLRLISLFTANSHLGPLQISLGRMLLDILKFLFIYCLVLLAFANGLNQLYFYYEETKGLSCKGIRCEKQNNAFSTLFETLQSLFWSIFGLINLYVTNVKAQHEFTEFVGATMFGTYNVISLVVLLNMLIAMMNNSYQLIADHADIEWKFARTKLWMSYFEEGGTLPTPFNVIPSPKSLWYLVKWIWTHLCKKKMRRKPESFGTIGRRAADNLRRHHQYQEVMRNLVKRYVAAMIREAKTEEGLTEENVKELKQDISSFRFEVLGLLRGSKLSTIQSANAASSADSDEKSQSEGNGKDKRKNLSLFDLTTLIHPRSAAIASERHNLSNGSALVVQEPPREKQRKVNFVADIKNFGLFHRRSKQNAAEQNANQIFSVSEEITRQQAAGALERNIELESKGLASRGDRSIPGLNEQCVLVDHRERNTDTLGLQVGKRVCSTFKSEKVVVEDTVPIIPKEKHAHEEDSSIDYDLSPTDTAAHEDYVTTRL

[12] = biological target: T1, Kappa-type opioid receptor; assay: kappa opioid receptor blockers, cell-based, luminescence, beta-arrestin, SAR follow-up (AID 2285)
[13] = biological target: T3, Delta-type opioid receptor; assay: DOR agonists, SAR follow-up, image-based (AID 2370)
Mucolipin-3 = biological target: T5, Mucolipin-3 (Homo sapiens, UniProt Q8TDD5); assay: Fluorescence counterscreen assay for […] agonists: dose response cell-based high-throughput screening assay to identify agonists of the transient receptor potential channel ML3 (TRPML3). [Related pubchem assays: 1424, 1448 ]
T5 sequence (Q8TDD5 whole entry): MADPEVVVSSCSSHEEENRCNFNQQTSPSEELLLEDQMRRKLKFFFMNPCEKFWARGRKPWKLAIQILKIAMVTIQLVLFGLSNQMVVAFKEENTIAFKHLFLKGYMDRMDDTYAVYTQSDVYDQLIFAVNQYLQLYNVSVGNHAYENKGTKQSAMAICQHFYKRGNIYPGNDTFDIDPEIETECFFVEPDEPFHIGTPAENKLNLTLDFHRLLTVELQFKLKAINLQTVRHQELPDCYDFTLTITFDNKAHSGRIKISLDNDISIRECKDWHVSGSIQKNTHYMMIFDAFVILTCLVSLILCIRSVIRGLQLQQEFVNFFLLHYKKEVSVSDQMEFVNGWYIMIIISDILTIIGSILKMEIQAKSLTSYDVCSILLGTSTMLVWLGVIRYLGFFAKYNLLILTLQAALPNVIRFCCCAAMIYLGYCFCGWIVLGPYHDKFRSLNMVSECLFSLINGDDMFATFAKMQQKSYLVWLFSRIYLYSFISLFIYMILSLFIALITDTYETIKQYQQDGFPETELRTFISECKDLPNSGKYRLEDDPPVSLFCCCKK

Ion channel NompC = Ion channel NompC (Danio rerio, UniProt Q7T1G6); assay: Dose response cell-based high-throughput screening assay for agonists of the transient receptor potential channel N1 (TRPN1). [Related pubchem assays (depositor defined):AID1424, AID1448]
Bcl-2-related protein A1 = biological target: T6, Bcl-2-related protein A1 (Mus musculus, UniProt Q07440);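 note: confirmatory dose–response counterscreen on Bfl-1, used to check hits from a UBC13 polyubiquitin inhibitor campaign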
T6 sequence (Q07440 whole entry): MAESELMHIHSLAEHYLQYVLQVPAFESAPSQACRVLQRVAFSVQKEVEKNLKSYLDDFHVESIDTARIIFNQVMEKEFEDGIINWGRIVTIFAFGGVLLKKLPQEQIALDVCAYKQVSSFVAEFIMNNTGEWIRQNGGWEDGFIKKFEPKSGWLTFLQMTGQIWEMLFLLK

[14] = biological target: T7, Ubiquitin-conjugating enzyme E2 N (Homo sapiens, UniProt P61088)
T7 sequence (P61088 whole entry): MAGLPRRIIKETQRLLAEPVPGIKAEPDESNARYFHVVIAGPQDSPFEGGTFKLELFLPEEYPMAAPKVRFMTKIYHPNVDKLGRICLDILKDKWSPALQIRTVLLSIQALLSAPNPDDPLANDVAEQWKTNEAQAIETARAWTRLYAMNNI

[15] = biological target: T7, Ubiquitin-conjugating enzyme E2 N; remark: listed apart in the source

Structure (SMILES): CCCCn1c(N)c(N(CCOC)C(=O)c2ccc(-c3ccc([N+](=O)[O-])cc3)o2)c(=O)[nH]c1=O
EC50 (T-cell): 23.9 µM (inactive)

Structure (SMILES): COc1cc(OC)c(C(=O)NC2CCCCCC2)cc1OC
EC50 (Mucolipin-3): > 29.9 µM (not active) | EC50 (Ion channel NompC): > 29.9 µM (inactive)

Structure (SMILES): NCCCn1c(C(=O)c2cc(Cl)c(N)c(Cl)c2)c2ccccc2[n+]1[O-]
IC50 (Bcl-2-related protein A1): > 20 µM (inactive) | IC50 [14]: 5.33 µM (active) | EC50 [11]: 1.88 µM (active) | IC50 [15]: 12.9 µM (active)

The remaining lines, values ahead:

IC50 [1]: 25.4 µM (inactive) | IC50 [2]: > 25 µM (inactive) | IC50 [3]: 9.62 µM (active) | EC50 [4]: 5.94 µM (active) | IC50 [5]: 14.2 µM (inactive)
Structure (SMILES): Cc1cccc(C)c1NC(=O)c1ccc(-c2ccc(Cl)cc2Cl)o1

EC50 [6]: > 32 µM (inactive) | IC50 (Mu-type opioid receptor [7]): 1.92 µM (active) | IC50 [8]: 4.73 µM (active) | EC50 (Mu-type opioid receptor [9]): > 32 µM (inactive) | IC50 [10]: > 32 µM (inactive) | EC50 [11]: 0.596 µM (active) | IC50 [12]: 6.72 µM (active) | EC50 [13]: 1.6 µM (active)
Structure (SMILES): CC(=O)c1ccc(S(=O)(=O)NCc2ccc(C(=O)NCC(c3ccccc3)N(C)C)cc2)cc1 (stereo not given)
